Results reported in publication PMC11370452 (bioRxiv, 2024).

What was measured:
MOR = settings: database annotation; cited from earlier work
GABABR = GABABR (Rattus norvegicus, UniProt O88871+Q9Z0U4); assay type: cell-based; settings: with Gαi bystander BRET sensor expression versus control
Chain of GABABR (Q9Z0U4 17-960 limits assumed): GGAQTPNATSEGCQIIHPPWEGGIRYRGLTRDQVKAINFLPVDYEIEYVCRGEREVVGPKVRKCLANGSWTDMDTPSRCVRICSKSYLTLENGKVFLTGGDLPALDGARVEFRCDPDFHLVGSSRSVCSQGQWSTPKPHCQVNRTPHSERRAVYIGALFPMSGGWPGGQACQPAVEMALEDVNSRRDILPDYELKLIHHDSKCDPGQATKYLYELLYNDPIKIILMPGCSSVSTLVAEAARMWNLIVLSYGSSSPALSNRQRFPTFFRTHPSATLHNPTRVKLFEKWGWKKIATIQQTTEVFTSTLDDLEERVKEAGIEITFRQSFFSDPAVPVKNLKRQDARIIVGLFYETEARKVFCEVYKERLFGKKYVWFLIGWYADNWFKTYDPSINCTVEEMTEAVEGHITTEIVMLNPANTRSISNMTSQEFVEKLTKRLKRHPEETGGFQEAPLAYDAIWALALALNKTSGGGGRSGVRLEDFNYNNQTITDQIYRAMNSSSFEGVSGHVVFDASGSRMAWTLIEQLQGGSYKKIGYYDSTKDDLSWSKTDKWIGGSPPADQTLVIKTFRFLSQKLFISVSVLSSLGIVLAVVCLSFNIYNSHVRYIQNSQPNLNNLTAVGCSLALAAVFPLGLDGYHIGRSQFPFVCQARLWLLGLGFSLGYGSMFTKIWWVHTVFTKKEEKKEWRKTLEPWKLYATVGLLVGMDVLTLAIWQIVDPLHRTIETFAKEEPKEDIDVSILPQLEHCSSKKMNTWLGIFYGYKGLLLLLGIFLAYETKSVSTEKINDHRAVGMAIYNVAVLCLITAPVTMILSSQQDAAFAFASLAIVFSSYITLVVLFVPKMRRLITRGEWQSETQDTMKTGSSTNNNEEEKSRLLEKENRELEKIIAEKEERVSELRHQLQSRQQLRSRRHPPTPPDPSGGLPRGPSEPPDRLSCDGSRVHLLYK
Chain of GABABR (O88871 41-940 partner): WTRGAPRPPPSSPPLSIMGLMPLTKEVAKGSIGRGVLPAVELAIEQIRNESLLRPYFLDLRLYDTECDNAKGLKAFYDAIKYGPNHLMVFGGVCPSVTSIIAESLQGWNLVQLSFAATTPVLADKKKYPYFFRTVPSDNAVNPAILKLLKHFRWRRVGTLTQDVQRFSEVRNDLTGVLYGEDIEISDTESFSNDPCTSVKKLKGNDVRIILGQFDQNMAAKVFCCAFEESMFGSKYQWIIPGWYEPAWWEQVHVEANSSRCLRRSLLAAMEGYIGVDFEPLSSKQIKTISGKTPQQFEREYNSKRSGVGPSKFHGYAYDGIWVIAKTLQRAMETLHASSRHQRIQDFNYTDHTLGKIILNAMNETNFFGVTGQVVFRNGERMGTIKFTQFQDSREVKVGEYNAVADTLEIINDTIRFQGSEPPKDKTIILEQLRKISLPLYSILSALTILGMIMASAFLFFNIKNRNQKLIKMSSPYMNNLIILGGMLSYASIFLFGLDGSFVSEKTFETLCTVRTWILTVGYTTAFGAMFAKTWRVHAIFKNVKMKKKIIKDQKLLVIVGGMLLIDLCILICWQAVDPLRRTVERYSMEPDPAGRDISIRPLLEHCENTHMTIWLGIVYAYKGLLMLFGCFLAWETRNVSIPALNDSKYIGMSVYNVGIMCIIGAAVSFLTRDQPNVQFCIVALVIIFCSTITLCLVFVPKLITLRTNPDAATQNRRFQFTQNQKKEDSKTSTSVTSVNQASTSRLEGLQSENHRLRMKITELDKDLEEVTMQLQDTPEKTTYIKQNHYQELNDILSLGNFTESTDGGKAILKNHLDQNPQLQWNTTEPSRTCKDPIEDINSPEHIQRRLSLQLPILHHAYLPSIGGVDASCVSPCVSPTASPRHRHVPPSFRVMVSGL

increase in the IC50 of inhibition by GABA (GABABR)	Molecule	Agonist efficacy, MOR: IUPHAR annotation (MOR)
	Leu-Enkephalin	partial agonist
~ 4 fold	NCCCC(=O)O [GABA]	
